These results are taken from BindingDB's records for doi:10.1021/jm980314l (Tanabe Seiyaku, 1999).

Structures can show the parent of a compound that is named as a salt.

The test concerns the target cGMP-specific 3',5'-cyclic phosphodiesterase PDE5 (Cavia porcellus). As to the kind of experiment: Inhibition of Phosphodiesterase 5 of guinea pig lung.

The molecule `COc1cc2cc(CO)c(CO)c(-c3ccnc(-n4ccc(=O)c5ccccc54)c3)c2cc1OC` [1-[4-(2,3-Bis-hydroxymethyl-6,7-dimethoxy-naphthalen-1-yl)-pyridin-2-yl]-1H-quinolin-4-one] gave a concentration for half-maximal inhibition (IC50) of 20 µM.
The same measure for `COc1cc2cc(CO)c(CO)c(-c3ccnc(-n4nc(-c5ccccn5)c5ccccc5c4=O)c3)c2cc1OC` [2-[4-(2,3-Bis-hydroxymethyl-6,7-dimethoxy-naphthalen-1-yl)-pyridin-2-yl]-4-pyridin-2-yl-2H-phthalazin-1-one; hydrochloride]: 9 µM; for `COc1cc2cc(CO)c(CO)c(-c3ccnc(-n4nc(-c5cccnc5)c5ccccc5c4=O)c3)c2cc1OC` [2-[4-(2,3-Bis-hydroxymethyl-6,7-dimethoxy-naphthalen-1-yl)-pyridin-2-yl]-4-pyridin-3-yl-2H-phthalazin-1-one; hydrochloride]: 4 µM; for `O=c1c2ccccc2c(-c2cccnc2)nn1-c1cc(-c2c(CO)c(CO)cc3ccccc23)ccn1` [2-[4-(2,3-Bis-hydroxymethyl-naphthalen-1-yl)-pyridin-2-yl]-4-pyridin-3-yl-2H-phthalazin-1-one; hydrochloride]: 10 µM.
The same measure for `CCOc1cc2cc(CO)c(CO)c(-c3ccnc(-n4nc(-c5cccnc5)c5ccccc5c4=O)c3)c2cc1OCC` [2-[4-(6,7-Diethoxy-2,3-bis-hydroxymethyl-naphthalen-1-yl)-pyridin-2-yl]-4-pyridin-3-yl-2H-phthalazin-1-one; hydrochloride]: 0.2 µM; for `CCOc1cc2cc(CO)c(CO)c(-c3ccnc(-n4nc(-c5cccnc5)c5ccccc5c4=O)c3)c2cc1OC` [2-[4-(6-Ethoxy-2,3-bis-hydroxymethyl-7-methoxy-naphthalen-1-yl)-pyridin-2-yl]-4-pyridin-3-yl-2H-phthalazin-1-one; hydrochloride]: 1 µM.
With `COc1cc2cc(CO)c(CO)c(-c3ccc(-n4nc(-c5cccnc5)c5ccccc5c4=O)nc3)c2cc1OC` [2-[5-(2,3-Bis-hydroxymethyl-6,7-dimethoxy-naphthalen-1-yl)-pyridin-2-yl]-4-pyridin-3-yl-2H-phthalazin-1-one; hydrochloride] the figure was 40 µM; with `COc1cc2cc(CO)c(CO)c(-c3ccnc(-n4ccccc4=O)c3)c2cc1OC` [4'-(2,3-Bis-hydroxymethyl-6,7-dimethoxy-naphthalen-1-yl)-[1,2']bipyridinyl-2-one], 40 µM.

For orientation: IC50 means the point on the concentration scale where inhibition reaches its midpoint. Lower therefore signals greater potency.
